In patent US8563505B2, “Hepatitis C virus inhibitors” (priority 2008, dated 2013):

What was measured:
[1] = biological target: T1, HCV NS3/4A protease complex (Hepatitis C virus genotype 1a, UniProt P27958, C1454S/C1711G); test: FRET peptide assay to monitor HCV NS3/4A proteolytic activity; type: biochemical; conditions: NS3/4A strain not stated
T1 construct: DNA encoding the recombinant HCV NS3/4A protease complex (amino acids 1027 to 1711) for these strains; inferred from pET21b vector and Ni-NTA purification) (C); made in house; host or cells: Escherichia coli BL21 (DE3), pET21b
T1 sequence (P27958 1027-1711 C1454S/C1711G, one chain of several): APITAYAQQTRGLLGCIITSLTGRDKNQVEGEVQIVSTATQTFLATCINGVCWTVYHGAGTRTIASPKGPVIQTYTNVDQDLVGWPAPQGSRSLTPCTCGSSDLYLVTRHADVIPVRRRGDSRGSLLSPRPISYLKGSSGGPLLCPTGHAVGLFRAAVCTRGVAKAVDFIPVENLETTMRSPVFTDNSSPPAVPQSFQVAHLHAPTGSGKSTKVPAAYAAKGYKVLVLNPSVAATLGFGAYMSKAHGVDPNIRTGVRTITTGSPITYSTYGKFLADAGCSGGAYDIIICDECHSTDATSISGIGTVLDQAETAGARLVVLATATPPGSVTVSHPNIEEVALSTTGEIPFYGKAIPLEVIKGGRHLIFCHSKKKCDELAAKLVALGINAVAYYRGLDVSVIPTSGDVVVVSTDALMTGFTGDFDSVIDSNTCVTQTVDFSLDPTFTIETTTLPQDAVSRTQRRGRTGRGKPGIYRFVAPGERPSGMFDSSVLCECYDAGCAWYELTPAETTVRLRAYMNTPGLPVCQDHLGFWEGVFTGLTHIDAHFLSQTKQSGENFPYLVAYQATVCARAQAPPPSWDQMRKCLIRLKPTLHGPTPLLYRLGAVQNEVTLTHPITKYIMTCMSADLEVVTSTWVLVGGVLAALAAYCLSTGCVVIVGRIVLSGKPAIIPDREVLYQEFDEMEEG
Text: HCV NS3 protease complexes, derived from the BMS strain, H77 strain or J4L6S strain, were generated, as described below. These purified recombinant proteins were generated for use in a homogeneous assay (see below) to provide an indication of how effective compounds of the present disclosure would be in inhibiting HCV NS3 proteolytic activity.
The H77 and J4L6S strains were used for production of recombinant NS3/4A protease complexes. DNA encoding the recombinant HCV NS3/4A protease complex (amino acids 1027 to 1711) for these strains was manipulated as described by P. Gallinari et al. (see Gallinari P, Paolini C, Brennan D, Nardi C, Steinkuhler C, De Francesco R. Biochemistry. 38(17):5620-32, (1999)). Briefly, a three-lysine solubilizing tail was added at the 3′-end of the NS4A coding region. The cysteine in the P1 position of the NS4A-NS4B cleavage site (amino acid 1711) was changed to a glycine to avoid the proteolytic cleavage of the lysine tag. Furthermore, a cysteine to serine mutation was introduced by PCR at amino acid position 1454 to prevent the autolytic cleavage in the NS3 helicase domain. The variant DNA fragment was cloned in the pET21b bacterial expression vector (Novagen) and the NS3/4A complex was expressed in Escherichia coli strain BL21 (DE3) (Invitrogen) following the protocol described by P. Gallinari et al. (see Gallinari P, Brennan D, Nardi C, Brunetti M, Tomei L, Steinkuhler C, De Francesco R., J Virol. 72(8):6758-69 (1998)) with modifications. Briefly, the NS3/4A protease complex expression was induced with 0.5 millimolar (mM) Isopropyl β-D-1-thiogalactopyranoside (IPTG) for 22 hours (h) at 20° C. A typical fermentation (1 Liter (L)) yielded approximately 10 grams (g) of wet cell paste. The cells were resuspended in lysis buffer (10 mL/g) consisting of 25 mM N-(2-Hydroxyethyl)Piperazine-N′-(2-Ethane Sulfonic acid) (HEPES), pH 7.5, 20% glycerol, 500 mM Sodium Chloride (NaCl), 0.5% Triton X-100, 1 microgram/milliliter ([…]) lysozyme, 5 mM Magnesium Chloride (MgCl2), 1 μg/ml DnaseI, 5 mM […] (βME), Protease inhibitor-Ethylenediamine Tetraacetic acid (EDTA) free (Roche), homogenized and incubated for 20 minutes (min) at 4° C. The homogenate was sonicated and clarified by ultra-centrifugation at 235000 g for 1 hour (h) at 4° C. Imidazole was added to the supernatant to a final concentration of 15 mM and the pH adjusted to 8.0. The crude protein extract was loaded on a Nickel-Nitrilotriacetic acid (Ni-NTA) column pre-equilibrated with buffer B (25 mM HEPES, pH 8.0, 20% glycerol, 500 mM NaCl, 0.5% Triton X-100, 15 mM imidazole, 5 mM βME). The sample was loaded at a flow rate of 1 mL/min. The column was washed with 15 column volumes of buffer C (same as buffer B except with 0.2% Triton X-100). The protein was eluted with 5 column volumes of buffer D (same as buffer C except with 200 mM Imidazole).
NS3/4A protease complex-containing fractions were pooled and loaded on a desalting column Superdex-S200 pre-equilibrated with buffer D (25 mM HEPES, pH 7.5, 20% glycerol, 300 mM NaCl, 0.2% Triton X-100, 10 mM (βME). Sample was loaded at a flow rate of 1 mL/min. NS3/4A protease complex-containing fractions were pooled and concentrated to approximately 0.5 mg/ml. The purity of the NS3/4A protease complexes, derived from the BMS, H77 and J4L6S strains, were judged to be greater than 90% by SDS-PAGE and mass spectrometry analyses. The enzyme was stored at −80° C., thawed on ice and diluted prior to use in assay buffer.
The purpose of this in vitro assay was to measure the inhibition of HCV NS3 protease complexes, derived from the BMS strain, H77 strain or J4L6S strain, as described above, by compounds of the present disclosure. This assay provides an indication of how effective compounds of the present disclosure would be in inhibiting HCV NS3 proteolytic activity.
In order to monitor HCV NS3/4A protease activity, an NS3/4A peptide substrate was used. […]

[2] = test system: HCV replicon in HUH-7 cells; test: HCV replicon assay (FRET, confirmed by luciferase reporter); type: cell-based, Hepatitis C virus (strain 1b); conditions: Hepatitis C virus, 96 h, HUH-7 replicon cells, 4 days
Text: An HCV replicon whole cell system was established as described by Lohmann V, Korner F, Koch J, Herian U, Theilmann L, Bartenschlager R., Science 285(5424):110-3 (1999). This system enabled us to evaluate the effects of our HCV Protease compounds on HCV RNA replication. Briefly, using the HCV strain 1b sequence described in the Lohmann paper (Assession number: AJ238799), an HCV cDNA was synthesized by Operon Technologies, Inc. (Alameda, Calif.), and the full-length replicon was then assembled in plasmid pGem9zf(+) (Promega, Madison, Wis.) using standard molecular biology techniques. The replicon consists of (i) the HCV 5′ UTR fused to the first 12 amino acids of the capsid protein, (ii) the neomycin phosphotransferase gene (neo), (iii) the IRES from encephalomyocarditis virus (EMCV), and (iv) HCV NS3 to NS5B genes and the HCV 3′ UTR. Plasmid DNAs were linearized with Seal and RNA transcripts were synthesized in vitro using the T7 MegaScript transcription kit (Ambion, Austin, Tex.) according to manufacturer's directions. In vitro transcripts of the cDNA were transfected into the human hepatoma cell line, HUH-7. […] Resulting cell lines were characterized for positive and negative strand RNA production and protein production over time.
The HCV replicon FRET assay was developed to monitor the inhibitory effects of compounds described in the disclosure on HCV viral replication. HUH-7 cells, constitutively expressing the HCV replicon, were grown in Dulbecco's Modified Eagle Media (DMEM) (Gibco-BRL) containing 10% Fetal calf serum (FCS) (Sigma) and 1 mg/ml G418 (Gibco-BRL). Cells were seeded the night before (1.5×10^4 cells/well) in 96-well tissue-culture sterile plates. Compound and no compound controls were prepared in DMEM containing 4% FCS, 1:100 Penicillin/Streptomysin (Gibco-BRL), 1:100 L-glutamine and 5% DMSO in the dilution plate (0.5% DMSO final concentration in the assay). Compound/DMSO mixes were added to the cells and incubated for 4 days at 37° C. After 4 days, cells were first assessed for cytotoxicity using alamar Blue (Trek Diagnostic Systems) for a CC50 reading. The toxicity of compound (CC50) was determined by adding 1/10th volume of alamar Blue to the media incubating the cells. After 4 h, the fluorescence signal from each well was read, with an excitation wavelength at 530 nm and an emission wavelength of 580 nm, using the Cytofluor Series 4000 (Perspective Biosystems). Plates were then rinsed thoroughly with Phosphate-Buffered Saline (PBS) (3 times 150 μl).
As a secondary assay, EC50 determinations from the replicon FRET assay were confirmed in a replicon luciferase reporter assay. Utilization of a replicon luciferase reporter assay was first described by Krieger et al (Krieger N, Lohmann V, and Bartenschlager R, J. Viral. 75(10):4614-4624 (2001)). The replicon construct described for our FRET assay was modified by inserting cDNA encoding a humanized form of the Renilla luciferase gene and a linker sequence fused directly to the 3′-end of the luciferase gene. This insert was introduced into the replicon construct using an Asc1 restriction site located in core, directly upstream of the neomycin marker gene. The adaptive mutation at position 1179 (serine to isoleucine) was also introduced (Blight K J, Kolykhalov, A A, Rice, C M, Science 290(5498):1972-1974). A stable cell line constitutively expressing this HCV replicon construct was generated as described above. The luciferase reporter assay was set up as described for the HCV replicon FRET assay with the following modifications. Following 4 days in a 37° C./5% CO2 incubator, cells were analyzed for Renilla Luciferase activity using the Promega Dual-Glo Luciferase Assay System. Media (100 μl) was removed from each well containing cells. To the remaining 50 μl of media, 50 μl of Dual-Glo Luciferase Reagent was added, and plates rocked for 10 min to 2 h at room temperature. […]

Row | Structure (SMILES) | IC50 ([1]; class symbols) | EC50 ([2]; class symbols) | IC50 ([1]; numeric values) | EC50 ([2]; numeric values)
1 | COc1ccc2c(c1)CCCC(C)(C)CCOC(=O)N[C@@H](C(C)(C)C)C(=O)N1C[C@@](OC)(C[C@H]1C(=O)N[C@]1(C(=O)NS(=O)(=O)C3CC3)C[C@H]1C1CC1)c1ccc-2cc1 [Example 11] | 1 to 3 nM | 5.5 to 10 nM |  | 
2 | CO[C@@]12C[C@@H](C(=O)N[C@]3(C(=O)NS(=O)(=O)C4CC4)C[C@H]3C3CC3)N(C1)C(=O)[C@H](C(C)(C)C)NC(=O)OCCCCCc1ccccc1-c1ccc2cc1 [Example 14] | 8 to 11 nM |  |  | 
3 | C=C[C@@H]1C[C@]1(NC(=O)[C@@H]1C[C@]2(OC)CN1C(=O)[C@H](C(C)(C)C)NC(=O)OCCCCCCc1ccccc1-c1ccc2cc1)C(=O)NS(=O)(=O)C1CC1 [Example 1] |  |  | 1 nM | 5 nM
4 | CO[C@@]12C[C@@H](C(=O)N[C@]3(C(=O)NS(=O)(=O)C4CC4)C[C@H]3C3CC3)N(C1)C(=O)[C@H](C(C)(C)C)NC(=O)OCC(C)(C)CCCc1ccccc1-c1ccc2cc1 [Example 16] | 4 to 7 nM |  |  | 
5 | CO[C@@]12C[C@@H](C(=O)N[C@]3(C(=O)NS(=O)(=O)C4CC4)C[C@H]3C3CC3)N(C1)C(=O)[C@H](C(C)(C)C)NC(=O)OCCCCCCc1ccc(Cl)cc1-c1ccc2cc1 [Example 20] | 1 to 3 nM |  |  | 
6 | C=C[C@@H]1C[C@]1(NC(=O)[C@@H]1C[C@]2(OC)CN1C(=O)[C@H](C(C)(C)C)NC(=O)OCCCCCc1cc2ccc1-c1ccccc1)C(=O)NS(=O)(=O)C1CC1 [Example 9] |  |  | 4 nM | 26 nM
7 | C=C[C@@H]1C[C@]1(NC(=O)[C@@H]1C[C@]2(OC)CN1C(=O)[C@H](C(C)(C)C)NC(=O)OCC(C)(C)CCCCc1cc(OC)ccc1-c1ccc2cc1)C(=O)NS(=O)(=O)C1CC1 [Example 12] | 1 to 3 nM | 5.5 to 10 nM |  | 
8 | C=C[C@@H]1C[C@]1(NC(=O)[C@@H]1C[C@]2(OC)CN1C(=O)[C@H](C(C)(C)C)NC(=O)OCCCCCCCc1ccccc1-c1ccc2cc1)C(=O)NS(=O)(=O)C1CC1 [Example 19] | 1 to 3 nM |  |  | 
9 | C=C[C@@H]1C[C@]1(NC(=O)[C@@H]1C[C@]2(OC)CN1C(=O)[C@H](C(C)(C)C)NC(=O)OCC(C)(C)CCCCc1ccccc1-c1ccc2cc1)C(=O)NS(=O)(=O)C1CC1 [Example 6] | 1 to 3 nM | 5.5 to 10 nM |  | 
10 | CO[C@@]12C[C@@H](C(=O)N[C@]3(C(=O)NS(=O)(=O)C4CC4)C[C@H]3C3CC3)N(C1)C(=O)[C@H](C(C)(C)C)NC(=O)OCCCCCCCc1ccccc1-c1ccc2cc1 [Example 18] | 1 to 3 nM |  |  | 
11 | CO[C@@]12C[C@@H](C(=O)N[C@]3(C(=O)NS(=O)(=O)C4CC4)C[C@H]3C3CC3)N(C1)C(=O)[C@H](C(C)(C)C)NC(=O)OCC(C)(C)CCCCc1ccccc1-c1ccc2cc1 [Example 5] | 4 to 7 nM | 11 to 20 nM |  | 
12 | CO[C@@]12C[C@@H](C(=O)N[C@]3(C(=O)NS(=O)(=O)C4CC4)C[C@H]3C(F)F)N(C1)C(=O)[C@H](C(C)(C)C)NC(=O)OCC(C)(C)CCCCc1ccccc1-c1ccc2cc1 [Example 7] | 1 to 3 nM | 5.5 to 10 nM |  | 
13 | C=C[C@@H]1C[C@]1(NC(=O)[C@@H]1C[C@]2(OC)CN1C(=O)[C@H](C(C)(C)C)NC(=O)OCCC(C)(C)CCCc1cc(OC)ccc1-c1ccc2cc1)C(=O)NS(=O)(=O)C1CC1 [Example 10] | 1 to 3 nM | 5.5 to 10 nM |  | 
14 | CO[C@@]12C[C@@H](C(=O)N[C@]3(C(=O)NS(=O)(=O)C4CC4)C[C@H]3C3CC3)N(C1)C(=O)[C@H](C(C)(C)C)NC(=O)OCCCCc1cccc(c1)-c1cccc2c1 [Example 21] | 1 to 3 nM |  |  | 
15 | C=C[C@@H]1C[C@]1(NC(=O)[C@@H]1C[C@]2(OC)CN1C(=O)[C@H](C(C)(C)C)NC(=O)OCCCCCc1ccccc1-c1ccc2cc1)C(=O)NS(=O)(=O)C1CC1 [Example 15] | 4 to 7 nM |  |  | 
16 | COc1ccc2c(c1)CCCCC(C)(C)COC(=O)N[C@@H](C(C)(C)C)C(=O)N1C[C@@](OC)(C[C@H]1C(=O)N[C@]1(C(=O)NS(=O)(=O)C3CC3)C[C@H]1C1CC1)c1ccc-2cc1 [Example 13] | 4 to 7 nM |  |  | 
17 | CO[C@@]12C[C@@H](C(=O)N[C@]3(C(=O)NS(=O)(=O)C4CC4)C[C@H]3C3CC3)N(C1)C(=O)[C@H](C(C)(C)C)NC(=O)OCC(C)(C)CCCCc1cc(N(C)C)ccc1-c1ccc2cc1 [Example 22] | 1 to 3 nM |  |  | 
